The text below walks through data of ChEMBL document CHEMBL4842376, “Design, synthesis and biological evaluation of novel hybrids targeting mTOR and HDACs for potential treatment of hepatocellular carcinoma” (Eur J Med Chem, 2021).

In one assay the test system is A549. Briefly: cells. The assay is classed as functional, cell-based. As to conditions: Homo sapiens, A549, 72 h.
Another assay has as its system MDA-MB-231. Briefly: cells. The assay is classed as functional, cell-based. As to conditions: Homo sapiens, MDA-MB-231, 72 h.
The test system of the next assay is HepG2. Briefly: Antiproliferative activity against human HepG2 cells assessed as inhibition of cell growth measured after 72 hrs by MTT assay. The class given is functional, cell-based. Particulars: HepG2, 72 h. A general note: Formazan colour is commonly taken as a measure of viable cells.
For another assay, the system named is CNE-2. Put plainly: cells. The assay is classed as functional, cell-based. Particulars: Homo sapiens, CNE-2, 72 h.
For the next assay, the system named is MCF7. Put plainly: cells. The class given is functional, cell-based. As to conditions: Homo sapiens, MCF7, 72 h.
The subject of another assay is HeLa. Put plainly: cells. The class given is functional, cell-based. As to conditions: Homo sapiens, 72 h.
Another assay concerns HCT-116. Briefly: cells. The assay is classed as functional, cell-based. As to conditions: Homo sapiens, HCT-116, 72 h.
Another assay concerns SNU-423. Put plainly: Antiproliferative activity against human SNU-423 cells assessed as inhibition of cell growth measured after 72 hrs by MTT assay. The assay is classed as functional, cell-based. Particulars: SNU-423, 72 h.
In assay [1] the target is T1, Protein deacetylase HDAC6 (Homo sapiens) (UniProt Q9UBN7).
T1 sequence (whole entry): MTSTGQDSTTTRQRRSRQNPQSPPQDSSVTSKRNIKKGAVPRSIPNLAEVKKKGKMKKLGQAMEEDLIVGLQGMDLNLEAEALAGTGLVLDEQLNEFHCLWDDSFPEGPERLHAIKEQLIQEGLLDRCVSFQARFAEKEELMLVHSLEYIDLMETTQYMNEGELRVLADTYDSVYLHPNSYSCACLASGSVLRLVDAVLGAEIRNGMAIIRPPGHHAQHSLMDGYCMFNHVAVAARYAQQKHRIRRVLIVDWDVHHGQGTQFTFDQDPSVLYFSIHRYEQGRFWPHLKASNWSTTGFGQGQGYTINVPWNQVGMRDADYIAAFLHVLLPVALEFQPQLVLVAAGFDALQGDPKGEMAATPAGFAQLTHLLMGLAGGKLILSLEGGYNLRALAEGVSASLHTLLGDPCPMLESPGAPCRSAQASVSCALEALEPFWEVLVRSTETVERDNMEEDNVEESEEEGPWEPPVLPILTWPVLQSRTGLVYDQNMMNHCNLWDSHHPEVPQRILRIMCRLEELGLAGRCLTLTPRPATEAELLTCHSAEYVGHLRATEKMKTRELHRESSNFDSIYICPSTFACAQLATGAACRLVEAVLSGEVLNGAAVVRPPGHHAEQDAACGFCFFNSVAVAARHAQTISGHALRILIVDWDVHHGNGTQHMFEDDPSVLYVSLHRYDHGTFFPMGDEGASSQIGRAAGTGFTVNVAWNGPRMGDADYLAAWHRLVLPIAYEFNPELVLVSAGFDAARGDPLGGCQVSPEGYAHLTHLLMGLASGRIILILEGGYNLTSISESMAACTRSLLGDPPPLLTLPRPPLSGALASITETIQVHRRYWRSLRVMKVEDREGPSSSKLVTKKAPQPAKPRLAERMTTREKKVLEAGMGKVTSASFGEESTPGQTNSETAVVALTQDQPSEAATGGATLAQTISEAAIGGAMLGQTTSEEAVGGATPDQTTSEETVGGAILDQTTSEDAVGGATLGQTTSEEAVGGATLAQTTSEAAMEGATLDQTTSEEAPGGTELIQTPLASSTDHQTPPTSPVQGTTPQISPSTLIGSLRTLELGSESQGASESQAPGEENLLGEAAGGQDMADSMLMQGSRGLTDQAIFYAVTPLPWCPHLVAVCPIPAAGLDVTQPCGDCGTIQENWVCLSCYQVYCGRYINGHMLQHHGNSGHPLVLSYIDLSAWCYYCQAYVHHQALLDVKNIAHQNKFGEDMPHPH
Put plainly: Inhibition of HDAC6 (unknown origin) at 1 uM using Ac-peptide as a substrate pretreated for 15 mins followed by substrate addition relative to control.

In another assay the test system is Hep 3B2. Briefly: cells. Particulars: Homo sapiens, Hep3B, 72 h. The class given is functional, cell-based.
The next assay has as its system PLC-PRF-5. Put plainly: Antiproliferative activity against human PLC-PRF-5 cells assessed as inhibition of cell growth measured after 72 hrs by MTT assay. The assay is classed as functional, cell-based. Particulars: PLC-PRF-5, 72 h.
The test system of another assay is Huh-7. Put plainly: cells. As to conditions: Homo sapiens, Huh-7, 72 h. The assay is classed as functional, cell-based.
For a further assay, the system named is Bel-7402. Briefly: Antiproliferative activity against human Bel-7402 cells assessed as inhibition of cell growth measured after 72 hrs by MTT assay. The assay is classed as functional, cell-based. Particulars: Bel-7402, 72 h.
The next assay relates to SK-HEP1. Put plainly: cells. The assay is classed as functional, cell-based. Particulars: Homo sapiens, SK-HEP1, 72 h.
Assay [2] deals with Serine/threonine-protein kinase mTOR (Homo sapiens, UniProt P42345). Briefly: Inhibition of mTOR (unknown origin) at 1 uM using U-Light-4E-BP1 peptide as a substrate in the presence of ATP incubated for 30 mins by Lance ultra assay relative to control.

Description for A549: Antiproliferative activity against human A549 cells assessed as inhibition of cell growth measured after 72 hrs by MTT assay
Description for CNE-2: Antiproliferative activity against human CNE-2 cells assessed as inhibition of cell growth measured after 72 hrs by MTT assay
Description for HCT-116: Antiproliferative activity against human HCT-116 cells assessed as inhibition of cell growth measured after 72 hrs by MTT assay
Description for HeLa: Antiproliferative activity against human HeLa cells assessed as inhibition of cell growth measured after 72 hrs by MTT assay
Description for Hep 3B2: Antiproliferative activity against human Hep3B cells assessed as inhibition of cell growth measured after 72 hrs by MTT assay
Description for Huh-7: Antiproliferative activity against human Huh-7 cells assessed as inhibition of cell growth measured after 72 hrs by MTT assay
Description for MCF7: Antiproliferative activity against human MCF7 cells assessed as inhibition of cell growth measured after 72 hrs by MTT assay
Description for MDA-MB-231: Antiproliferative activity against human MDA-MB-231 cells assessed as inhibition of cell growth measured after 72 hrs by MTT assay
Description for SK-HEP1: Antiproliferative activity against human SK-HEP1 cells assessed as inhibition of cell growth measured after 72 hrs by MTT assay

A word on the IC50: it is the concentration that inhibits the measured activity by half. Regarding `Nc1nc2cc(-c3nn(CCC(=O)NO)c4ncnc(N)c34)ccc2o1`, the IC50 in the assay with A549 is above 150 µM; with MDA-MB-231 it was above 50 µM; in the assay on HepG2 it was above 150 µM; in the assay with CNE-2, above 150 µM; in the assay on MCF7, above 100 µM; in the assay with HeLa, above 150 µM. In the assay on HCT-116, this compound showed an IC50 above 100 µM.

On to `Nc1ncnc2c1c(-c1cnc3[nH]ccc3c1)nn2CC(=O)NO`, for which the IC50 in the assay with A549, in the assay on MDA-MB-231, in the assay with HepG2, with CNE-2, in the assay on MCF7 and in the assay with HCT-116 was above 150 µM each time.

As a reminder, the inhibition is the drop in the measured response relative to a control, in per cent. Regarding `Nc1nc2cc(-c3nn(CCCCCCCCCC(=O)NO)c4ncnc(N)c34)ccc2o1`, the IC50 with SNU-423 is above 50 µM; in the assay on A549, above 50 µM; in the assay on MDA-MB-231 it was above 50 µM; with HepG2 it was 28.6 µM; with CNE-2, 36.8 µM; with Hep 3B2 it was 28.8 µM. For the same compound, the IC50 is above 100 µM with PLC-PRF-5; above 50 µM with MCF7; 41.2 µM with Huh-7; above 50 µM in the assay with Bel-7402; 14.1 µM in the assay with SK-HEP1; above 50 µM with HeLa. The same compound gave an IC50 in the assay with HCT-116 of 23.1 µM. In addition, the inhibition in assay [1] is 98.2%; in assay [2] it was 92.4%.

As for `Nc1ncnc2c1c(-c1cnc3[nH]ccc3c1)nn2CCCCCCC(=O)NO`, the half-inhibitory concentration (IC50) with SNU-423 turned out to be 7.5 µM; in the assay with A549 it was 50 µM; in the assay with MDA-MB-231, 37.7 µM; in the assay with HepG2 it was 10.3 µM; with CNE-2 it was 19.5 µM; with Hep 3B2 it was 26.2 µM. The IC50 was above 50 µM in the assay with PLC-PRF-5; 19.8 µM with MCF7; 50.9 µM in the assay with Huh-7; 30.8 µM with Bel-7402; 14.7 µM with SK-HEP1; 22 µM in the assay with HeLa. Also, 9.86 µM corresponded to half-maximal inhibition in the assay with HCT-116 (IC50). For the same compound, the inhibition in [1] came out at 99.1%; in [2], 98.7%.

As to `Nc1nc2cc(-c3nn(CCCCC(=O)NO)c4ncnc(N)c34)ccc2o1`, the IC50 was 3.03 µM in the assay with SNU-423; above 100 µM with A549; 21.2 µM in the assay on MDA-MB-231; 2.1 µM in the assay with HepG2; above 50 µM in the assay on CNE-2; 33.7 µM in the assay with Hep 3B2. Further, the IC50 with PLC-PRF-5 is 29.6 µM; with MCF7, 14 µM; in the assay on Huh-7, 9.22 µM; in the assay with Bel-7402 it was 2.4 µM; in the assay on SK-HEP1, 6.4 µM; in the assay with HeLa, 32.2 µM. The compound further displayed an IC50 with HCT-116 of 34 µM. Moreover, the figures for the inhibition in assay [1] and in assay [2] were 95.1% and 99.4%, respectively.

On to `Nc1nc2cc(-c3nn(CCCCCCCCC(=O)NO)c4ncnc(N)c34)ccc2o1`, for which the IC50 was found to be 4.94 µM in the assay on SNU-423; 13.2 µM in the assay with A549; 30.3 µM in the assay with MDA-MB-231; 2.61 µM in the assay with HepG2; 3.24 µM in the assay on CNE-2; 8.89 µM in the assay on Hep 3B2. In addition, the IC50 was 24 µM in the assay on PLC-PRF-5; 42.1 µM with MCF7; 1.47 µM with Huh-7; above 100 µM in the assay with Bel-7402; above 100 µM in the assay on SK-HEP1; 10.2 µM with HeLa. In addition, in the assay with HCT-116, the IC50 stood at 2.98 µM. In addition, the values for the inhibition in [1] and in [2] were 99% and 99.3%, respectively.

For the compound `Nc1ncnc2c1c(-c1cnc3[nH]ccc3c1)nn2CCCCC(=O)NO`, the concentration for half-maximal inhibition (IC50) with A549 is above 150 µM; in the assay with MDA-MB-231 it was above 50 µM; in the assay on HepG2, 36.6 µM; with CNE-2 it was above 150 µM; in the assay with MCF7 it was above 150 µM; in the assay with HeLa, above 150 µM. The compound further registered a concentration for half-maximal inhibition (IC50) with HCT-116 above 150 µM.

Regarding `Nc1nc2cc(-c3nn(CCCC(=O)NO)c4ncnc(N)c34)ccc2o1`, the half-inhibitory concentration (IC50) was above 100 µM in the assay on A549; 19.5 µM with MDA-MB-231; above 50 µM in the assay with HepG2; above 50 µM with CNE-2; above 50 µM in the assay on MCF7; above 150 µM in the assay with HeLa. Moreover, in the assay on HCT-116, the 50% inhibitory concentration (IC50) was found to be 19.6 µM.

For the compound `Nc1ncnc2c1c(-c1cnc3[nH]ccc3c1)nn2CCCCCCCCCC(=O)NO`, the IC50 with SNU-423 was 8.16 µM; in the assay on A549 it was 6.55 µM; with MDA-MB-231, 10.1 µM; with HepG2 it was 11.7 µM; in the assay with CNE-2 it was 2.2 µM; in the assay with Hep 3B2, 17.2 µM. The IC50 in the assay on PLC-PRF-5 was 34.2 µM; in the assay with MCF7, 23.2 µM; in the assay on Huh-7, 10.1 µM; with Bel-7402, 42.1 µM; in the assay on SK-HEP1, 23.5 µM; in the assay with HeLa, 7.56 µM. In the assay with HCT-116, this compound registered a half-maximal inhibitory concentration (IC50) of 18.7 µM. Moreover, the inhibition came to 98.3% in assay [1] and 97.6% in assay [2].

For `Nc1nc2cc(-c3nn(CCCCCC(=O)NO)c4ncnc(N)c34)ccc2o1`, the half-inhibitory concentration (IC50) in the assay with SNU-423 is 12.6 µM; in the assay with A549 it was above 100 µM; with MDA-MB-231 it was 19 µM; in the assay with HepG2, 1.99 µM; with CNE-2, 37.6 µM; in the assay with Hep 3B2, 34.2 µM. For the same compound, the concentration for half-maximal inhibition (IC50) in the assay with PLC-PRF-5 was above 50 µM; in the assay on MCF7 it was 12.4 µM; in the assay on Huh-7, 9.91 µM; in the assay with Bel-7402, 2.03 µM; in the assay with SK-HEP1, 3.08 µM; with HeLa it was 15.4 µM. In the assay on HCT-116, this compound returned an IC50 of 21.5 µM. Besides, the inhibition in assay [1] came out at 97.8%; in assay [2] it was 100%.

With `Nc1nc2cc(-c3nn(CC(=O)NO)c4ncnc(N)c34)ccc2o1`, the half-inhibitory concentration (IC50) was 27.7 µM in the assay with A549; 6.31 µM with MDA-MB-231; above 150 µM with HepG2; 12.2 µM with CNE-2; above 100 µM with MCF7; above 150 µM in the assay on HeLa. Further, the half-inhibitory concentration (IC50) with HCT-116 amounted to 11.4 µM.

For the compound `Nc1ncnc2c1c(-c1cnc3[nH]ccc3c1)nn2CCCCCC(=O)NO`, the concentration for half-maximal inhibition (IC50) is above 150 µM in the assay with A549; above 100 µM in the assay with MDA-MB-231; 12.9 µM in the assay with HepG2; above 50 µM in the assay with CNE-2; above 50 µM with Hep 3B2; above 150 µM with PLC-PRF-5. Besides, the 50% inhibitory concentration (IC50) in the assay on MCF7 is above 150 µM; in the assay on Huh-7, above 100 µM; in the assay with SK-HEP1 it was above 150 µM; in the assay on HeLa it was above 150 µM; in the assay on HCT-116 it was 63.7 µM.

As for `Nc1ncnc2c1c(-c1cnc3[nH]ccc3c1)nn2CCC(=O)NO`, the IC50 with A549, in the assay with MDA-MB-231, with HepG2, in the assay with CNE-2, in the assay on MCF7 and in the assay with HCT-116 was above 150 µM throughout.

Take `Nc1ncnc2c1c(-c1cnc3[nH]ccc3c1)nn2CCCC(=O)NO`: the IC50 was above 150 µM in the assay with A549; above 150 µM in the assay on MDA-MB-231; above 50 µM in the assay on HepG2; above 150 µM with CNE-2; above 150 µM in the assay with MCF7; above 150 µM in the assay with HCT-116.
